Experimental data published in patent US20210275493A1, “IMMUNO-ONCOLOGY THERAPY USING ISOFLAVONE COMPOUNDS” (NOXOPHARM LIMITED, priority 2019, published 2021).
Entries after “also recorded” stand apart in the source; their conditions may differ.

Experiments:
[1] = system: NPC (C17/NPC43+ve) cells, C17 spheroid; assay: 3D tumor spheroid apoptosis imaging (CellEvent Caspase-3/7); assay type: cell-based
Method: (§1) For the generation of tumor spheroids in 3D, 200 μL/well of cell suspension in culture medium was seeded at cell densities of 20,000 cells/well. NPC (C17/NPC43+ve) cells were dispensed into Nunclon Sphera 96 wells plate (Thermo Fisher Scientific). The Nunclon Sphera surface was designed to cause minimal cell attachment with minimal extracellular matrix protein binding to the plate surfaces. Plates were incubated at 37° C. and 5% CO2 in RPMI supplemented with FBS and ROCK inhibitor.
To mimic in vivo conditions, the cytotoxicity of idronoxil on NPC cells using three-dimensional (3D) tumor cultures was examined. The effect of increasing concentrations of idronoxil was monitored on apoptosis using fluorescent probes (non-toxic CellEvent Caspase-3/7 Green and LysoTracker Deep Red) in combination with bright-field microscopy to perform persistent real-time spheroid imaging. […] When LysoTracker was added to the spheroids, the staining pattern was complementary to that of CellEvent, with the LysoTracker constantly accumulating in the outer and presumably metabolically active layers of the spheroids.

[2] = system: NPC cell line spheroids cocultured with PBMCs; assay: Coculture of NPC tumor spheroids and PBMCs: PBMC infiltration; assay type: cell-based
Method: as §1
(§2) For flow cytometry analyses, 8 wells/condition were seeded. OUT and IN compartments were isolated by first pooling the 8 cocultures wells in eppendorf tubes. Spheroids were gently resuspended and left to sediment to the bottom of the tubes. Supernatant cell suspension constituted the non-infiltrating immune cells (=OUT). These steps were repeated twice with Phosphate Buffer Saline (PBS) in order to separate the spheroids from the non-infiltrating immune cells. Spheroids were then trypsinized to obtain a single cell suspension (=IN) and further analyzed by flow cytometry.
(§3) The interactions between tumor spheroids and PBMCs through heterotypic cocultures was explored. Spheroids were generated from an NPC cell line cocultured with PBMCs obtained from healthy donors that were HLA-matched whenever possible. After coculture, lymphocyte tumor infiltration and tumor cell apoptosis were measured. The cellular compositions within infiltrated tumor spheroids by mechanically separating infiltrating cells (IN) and cells remaining in the medium (OUT) were studied. A description of the coculture experimental protocol is illustrated in FIG. 1.
An increase in PBMCs infiltration in the tumor spheroids upon treatment was detected as early as 2 hours after the beginning of the experiment, while the number of infiltrated cells remained constant in the controls (DMSO) over 72 hours of coculture. […] Moreover, the CellEvent staining was performed on the coculture to confirm the induction of apoptosis and observed that spheroid infiltration was proportional to an active apoptosis process in tumor cells. […]

NPC cell lines = assay: In vitro exposure of NPC cell lines: T-cell chemokine expression; assay type: cell-based
[3] = system: T cells infiltrating C17/NPC43+ve spheroids; assay: Flow cytometry of spheroid-infiltrating T cells (IN/OUT) in NPC spheroid/PBMC coculture; assay type: cell-based
Method: as §2
Differences in quantitative variables were analyzed by the Mann-Whitney U test when comparing 2 groups. A p value<0.05 was considered as statistically significant.
as §3
These findings support the use of idronoxil to induce immunomodulatory responses, and in combination with conventional chemotherapies, enhance antitumor immunity. […] Finally, additionally to the above findings the inventors detected a significant reduction in PD1^+ expression in total infiltrating memory cells compared to DMSO controls (mean 48.57±5.117 vs. mean 62.06±3.066; p=0.0086; FIG. 3). In contrast, significant up-regulation in PD1^+ expression in naïve infiltrated cells upon idronoxil treatment as compared to DMSO (mean 62.10±7.049 vs. mean 43.57±3.870; p=0.0017) was found.

[4] = system: MCF-7 mammary carcinoma spheroids with PBMCs; assay: MCF-7 spheroid PBMC co-culture: microscopy and FACS; assay type: cell-based, human
Method: (§4) Spheroids were generated using the liquid overlay technique. Therefore, a 96 well cell culture plate (Greiner) was precoated with 1.5% (w/v) agarose. For this, 0.75 g of agarose was diluted in 50 ml PBS and boiled for 15 min in a pressure cooker at full pressure, followed by another 10 min at lowest pressure level. 50 μl of agarose solution was added to each well of the 96 well plate and allowed to cool down at RT (under a cell culture hood). Tumor cells were trypsinized and adjusted to a cell suspension of 25.000 cells/ml in medium (RPMI 1640, 10% FCS, 1% penicillin/streptomycin). The outer wells of the 96 well plates were filled with PBS, and the remaining wells were filled with 200 μl cell suspension. Cell aggregation was triggered by centrifugation of the plate at 500× g, 5 min, RT. Plates were then maintained for 5 days in an incubator (37° C., humidified atmosphere). Medium was changed every two days by careful aspiration. Spheroid size was acquired with a Carl Zeiss Axiovert microscope and diameters were determined using AxioVision 40 software.
(§5) PBMCs were isolated from buffy coats (DRK-Blutspendedients Baden-Würtemberg-Hessen, Institut für Transfusionsmedizin and Immunhämatologie, Frankfurt am Main, Germany) using Bicoll-Hypaque gradients. Two 50 ml Leukosep® tubes (Greiner) per buffy coat were filled with 15 ml lymphocyte separation medium (Sigma Aldrich) and centrifuged at 1000×g, 1 min, RT, to place the solution below the membrane. Afterwards 30 ml human blood from buffy coats was added, tubes were filled up to 50 ml with PBS/2 mM EDTA solution, and centrifuged at 500×g, 45 min, RT without break. After density gradient centrifugation, the intermediate white layer composed of mononuclear cells was transferred into a fresh sterile 50 ml tube and washed twice with PBS/2 mM EDTA. After RBC lysis (RBC lysis buffer: 135 mM NH4Cl, 10 mM NaHCO3, 0.1 mM EDTA; for 4 min at RT, stop with PBS) cells were diluted in RPMI 1640 medium (+10% FCS, 1% penicillin/streptomycin) at 2×10^6 cells/ml.
(§6) PBMCs were activated with 25 μl/ml CD3/CD28 T cell activator cocktail (StemCell Technologies), and 50.000 pre-activated PBMCs/well were added to spheroids. Afterwards, co-cultures were stimulated with 1 μM or 10 μM idronoxil or DMSO for 3 days. After three days, samples were either harvested for downstream analysis or treated again with 1 μM or 10 μM idronoxil or DMSO±10 μg/ml anti-PD-1 antibody (BioXCell) or the isotype control for another 3 days. Spheroid size was acquired with a Carl Zeiss Axiovert microscope and diameters were determined using AxioVision 40 software. Spheroids were harvested by transferring 5 spheroids of each group into FACS tubes (BD Biosciences), followed by centrifugation (500× g, 5 min, 4° C.). After removing the supernatant, 100 μl Accutase (Sigma Aldrich) was added to the spheroids, followed by 15 min incubation at 37° C. and generation of single cell suspensions by shearing the cell suspension repeatedly trough pipetting using 100 μl filter pipette tips. After centrifugation (500×g, 5 min, 4° C.) and removal of supernatant, cells were blocked with 80 μl of 0.5% BSA/PBS and 2 μl FcR-blocking reagent (Miltenyi Biotec) for 15 min on ice. Thereafter, cells were stained with an antibody mix consisting of anti-human CD4 PE-CF594, anti-human CD8 APC-H7, anti-human TCRab FITC, anti-human CD33 BV510, anti-human CD45 AF700, anti-human CD279 APC, and anti-human CD274 BV421 (each from BD Biosciences) antibodies for 20 min on nice in the dark. After washing with 500 μl FACS Flow (BD Biosciences), cells were resuspended in 300 μl FACS Flow, 20 μL absolute count standard (Bangs Laboratory) were added to each sample, and samples were acquired using an LSR II/Fortessa flow cytometer (BD Biosciences). All Antibodies were previously titrated to determine optimal concentrations. Antibody-capturing CompBeads (BD Biosciences) were used to create the multi-color panel compensation matrix. […]

[5] = system: A549 lung adenocarcinoma spheroids with PBMCs; assay: A549 spheroid PBMC co-culture: microscopy and FACS; assay type: cell-based, human
Method: as §4, §5, §6

[6] = Clinical examples: plasma concentration after daily dosing; assay type: in vivo, human; details: 800 mg daily dosage for a period of 7 days
Method: An individual presents with metastatic castration resistant prostate cancer. […] The individual has not been prior treated with an […]. The individual is given 800 mg daily dosage of idronoxil for a period of 7 days to establish a plasma concentration of 350 ng/mL of idronoxil. The individual is then administered with an anti-PD-1 antibody according to the product information. The dosage cycle is repeated twice and the individual is assessed for response to anti PD-1 therapy.
An individual presents with advanced melanoma, having been assessed at 12 weeks from first administration of an anti-CTLA-4 antibody as having stable disease and not having achieved a partial response. The individual is given 800 mg daily dosage of idronoxil for a period of 7 days to establish a plasma concentration of 350 ng/mL of idronoxil. The individual is then administered with an anti-CTLA-4 antibody according to the product information. The dosage cycle is repeated twice and the individual is assessed for response to anti-CTLA-4 therapy.

With Oc1ccc(C2=Cc3ccc(O)cc3OC2)cc1 [idronoxil, 2H-1-Benzopyran-7-0,1,3-(4-hydroxyphenyl)] the “IC50 values, spheroid-derived cells in 3D versus 2D conditions” value ([1]; 3D vs 2D) was “comparable”, the IC50 ([1]; C17 spheroids, 3D culture, apoptosis by CellEvent Caspase-3/7, read-out: IC50 (3D CellEvent dose-response curve)) was 2.1 µM and the “intensity of C17 spheroid staining with CellEvent” value ([1]; increasing concentrations of idronoxil) was “proportional to idronoxil concentrations”. For the same compound, the “time at which increase in PBMCs infiltration was detected” value ([2]; after the beginning of the experiment) was 2 h, the “idronoxil-induced PBMC migration upon blockade of CXCL10” value ([2]; neutralizing antibodies added to tumor spheroid cultures) was “significantly reduced” and the “influx of PBMC into the spheroids” value ([2]; vs DMSO control, up to 72 hours of coculture) was “significantly increased”. The “expression of T-cell chemokines” value (NPC cell lines) was “expression of the T-cell chemokines CXCL8, 9 and 10”, the “double-positive (DP) T cells in the tumor structure” value ([3]; CD3+ populations IN vs OUT, 72 hours) was “significant increase” and the “PD1+ expression in naïve infiltrated cells (mean)” value ([3]; DMSO control 43.57±3.870, p=0.0017) was 62.10±7.049. For the same compound, the “PD1+ expression in total infiltrating memory cells (mean)” value ([3]; DMSO control 62.06±3.066, p=0.0086) was 48.57±5.117, the “proportions of CD45RO+ CD27+ memory cells among infiltrating DP T cells” value ([3]; compared to control) was “decreased proportions” and the “proportions of CD45RO- CD27+ naïve cells among infiltrating DP T cells” value ([3]; compared to control) was “increased proportions”. The “CD62L expression of tumor-infiltrating DP T cells” value ([3]; compared to control, CCR7 not reduced) was “pronounced reduction”, the “expression of PD1 on CD4+ T cells” value ([4]; 10 μM, day 3, FACS) was “reduces” and the “expression of PDL1 on myeloid cells” value ([4]; 10 μM, day 3, FACS) was “reduces”. For the same compound, the “number of myeloid cells” value ([4]; 10 μM, day 3, FACS) was “reduces”, the 3D spheroid size ([4]; 10 μM, day 6) was “reduced” and the “immune function of the cells (cluster formation)” value ([4]; 10 μM, day 6) was “maintained”. The “number of tumor cells” value ([4]; 10 μM, day 6, FACS) was “reduces”, the 3D spheroid size ([4]; day 3) was “reduced” and the “immune activation (cluster formation)” value ([4]; day 3) was “induced or maintained”. For the same compound, the “expression of PD1 on both CD4+ and CD8+ T cells” value ([4]; day 6, especially at 10 μM, FACS) was “reduces”, the “PDL1 expression by myeloid cells” value ([4]; day 6, idronoxil in general, FACS) was “strongly reduces” and the 3D spheroid size ([5]; 1 μM, day 6) was “reduced”. The 3D spheroid size ([5]; 10 μM, day 3) was “reduces”, the “immune activation (cluster formation)” value ([5]; 10 μM, day 3) was “induces or maintains” and the “expression of PD1 on CD8+ T cells” value ([5]; 10 μM, day 3, FACS) was “reduced”. The “expression of PDL1 on myeloid cells” value ([5]; 10 μM, day 3, FACS) was “reduced”, the “immune activation (cluster formation)” value ([5]; 10 μM, day 6) was “maintains” and the “invasion of the cells (into agarose)” value ([5]; 10 μM, day 6) was “reduced; also recorded: prevents”. For the same compound, the spheroid size ([5]; 10 μM, day 6) was “reduced”, the “expression of PD1 on both CD4+ and CD8+ T cells” value ([5]; 10 μM, day 6, FACS) was “reduces” and the “expression of PDL1 on myeloid cells” value ([5]; 10 μM, day 6, FACS) was “reduces”. For the same compound, the immune cell infiltrates ([5]; 10 μM, day 6, FACS) was “increased” and the “plasma concentration of idronoxil” value [6] was 350 ng/mL.
